Assay results published in US4645778A, “2-(N-pyrrolidino)-3-isobutoxy-n-substituted-phenyl-n-benzyl-propylamines, their preparation and pharmaceutical use” (Riom Laboratoires C.E.R.M. "RL-Cerm"S.A., priority 1983, dated 1987).
Read-outs that look alike come from different tables or passages of the source.

Assays:
isolated aorta = test: Vascular tropism: anti-calcium effect on rabbit isolated aorta (contraction by calcium chloride); conditions: for ISOLATED AORTA pA2 / ISOLATED AORTA pD'2: rabbit isolated aorta, K+ depolarised, 37° C., 15 min; for ISOLATED AORTA pA2: competitive antagonism vs calcium chloride; for ISOLATED AORTA pD'2: non-competitive antagonism vs calcium chloride; for vascular anti-calcium activity / vascular tropism (in words): vascular test, summary of Table I
Protocol: (§1) In vitro, the calcium antagonism activity was investigated in accordance with the methods summarised below.
Investigation of a vascular tropism
A rabbit's isolated aorta, cut into spirals, was placed in a KREBS solution kept at 37° C., free from Ca^++ and enriched with K^+ ([…] of KCL/liter) for depolarisation.
The contracting effect of cumulative concentrations of calcium chloride was investigated and the anti-calcium effect of the compounds studied was evaluated 15 minutes after their addition to the solution in which the aorta was kept.
(§2) The conventional parameters of molecular pharmacology are subsequently determined (pA2 for a competitive antagonism and pD'2 for a non-competitive anatagonism), using the technique of VAN ROSSUM [ARCH. INT. PHARMACODYN. THER. 143, 299-330 (1963)].

papillary muscle = test: Cardiac tropism: calcium antagonism on rabbit papillary muscle (inotropic effect of calcium chloride); conditions: for cardiac anti-calcium activity / cardiac tropism (in words): cardiac test, summary of Table I; for PAPILLARY MUSCLE pA2 / PAPILLARY MUSCLE pD'2: rabbit papillary muscle
Protocol: as §1
Investiqation of a cardiac tropism
A rabbit's papillary muscle was placed in a KREBS-HENSELEIT solution kept at 37° C. and was stimulated electrically at a frequency of 1.5 Hz (5 ms of pulse at 15 V).
The positive inotropic effect of calcium chloride was investigated by the method of cumulative dose-response curves.
The substances to be studied were added to the solution in which the muscle was kept, 15 minutes prior to determining the agonist curves.
as §2

anaesthetised dog = test: Anti-angina activity: haemodynamic effects in the anaesthetised dog; format: in vivo; conditions: 5 mg.kg^-1 intravenously; for anti-anginal activity (in words): summary of Table II; for change in vivo at 5 mg/kg: Canis lupus familiaris, iv
Protocol: In vivo, the anti-angina activity was investigated by measuring the haemodynamic effects in the anaesthetised dog, in accordance with the method summarised below.
The following parameters were recorded on the dog anaesthetised with chloralose (100 mg.kg^-1 administered intravenously):
pulse rate, by means of subcutaneous ECG electrodes connected to a BECKMAN cardiotachymeter (branch D II),
coronary arterial flow recorded by means of a STATHAM electromagnetic flowmeter and
antitachycardiac action (inhibition of the positive chronotropic effects of isoprenaline).
These parameters were recorded continuously on a BECKMAN dynograph and at the same time the duration of the action was measured.
The compounds of the invention are administered intravenously at a dose of 5 mg.kg^-1.

[1] = 37° C., 15 min preincubation, competitive antagonism vs calcium chloride
[2] = read-out: CORONARY FLOW Variation
[3] = inhibition of positive chronotropic effects of isoprenaline, read-out: ANTI-TACHYCARDIAC ACTION Variation
[4] = inhibition of positive chronotropic effects of isoprenaline

Structure (SMILES)	ISOLATED AORTA pA2 (isolated aorta)	ISOLATED AORTA pD'2 (isolated aorta)	cardiac anti-calcium activity / cardiac tropism (in words) (papillary muscle)	PAPILLARY MUSCLE pA2 (papillary muscle; [1])	PAPILLARY MUSCLE pD'2 (papillary muscle; 37° C., 15 min preincubation, non-competitive antagonism vs calcium chloride)	vascular anti-calcium activity / vascular tropism (in words) (isolated aorta)	PAPILLARY MUSCLE pD'2 (papillary muscle; at 10^-4 M)	CORONARY FLOW Duration (anaesthetised dog) [min]	PULSE RATE Duration (anaesthetised dog) [min]	anti-anginal activity (in words) (anaesthetised dog)	change in vivo at 5 mg/kg (anaesthetised dog; [2]) [%]	change in vivo at 5 mg/kg (anaesthetised dog; read-out: PULSE RATE Variation) [%]	change in vivo at 5 mg/kg (anaesthetised dog; [3]) [%]	ANTI-TACHYCARDIAC ACTION Duration (anaesthetised dog; [4]) [min]	PAPILLARY MUSCLE pA2 (papillary muscle; at 10^-4 M)	PAPILLARY MUSCLE pD'2 (papillary muscle; at 10^-4 M, 15 min)	PAPILLARY MUSCLE pA2 (papillary muscle; at 10^-5 M, 15 min)	PAPILLARY MUSCLE pA2 (papillary muscle; at 10^-4 M, 15 min)
Cc1ccc(N(Cc2ccccc2)CC(COCC(C)C)N2CCCC2)cc1 (stereo not shown) [Compound 1]	4.83 ± 0.28	5.08 ± 0.27	more marked cardiac tropism	4.30 ± 0.24	3.81 ± 0.20													
CC(C)COCC(CN(Cc1ccccc1)c1ccc2c(c1)OCO2)N1CCCC1 (stereo not shown) [Compound 11, 2-(N-pyrrolidino)-3-isobutoxy-N-(3,4-methylenedioxy)-phenyl-N-benzyl-propylamine]	4.94 ± 0.43	4.80 ± 0.05	about the highest activity	5.44 ± 0.26		about the highest activity	total	20	> 45	most valuable anti-anginal activity	116	-50	-47	45				
CC(C)COCC(CN(Cc1ccccc1)c1cc(Cl)cc(Cl)c1)N1CCCC1 (stereo not shown) [Compound 7]	4.70 ±0.60	3.85 ± 0.43						5	45		31	-23	-54	45	Inactive			
Cc1cccc(C)c1N(Cc1ccccc1)CC(COCC(C)C)N1CCCC1 (stereo not shown) [Compound 8]	5.21 ± 0.65	4.87 ± 0.48	noteworthy			noteworthy		15	35	most valuable anti-anginal activity	85	-36	-28	15		3.69	4.67	
CC(C)COCC(CN(Cc1ccccc1)c1ccc(Cl)c(Cl)c1)N1CCCC1 (stereo not shown) [Compound 2]								10	> 45	most valuable anti-anginal activity	39	-11	-51	15				
CC(C)COCC(CN(Cc1ccccc1)c1ccc(Cl)cc1)N1CCCC1 (stereo not shown) [Compound 4]								3	> 45		32	-27	-60	> 45				
COc1ccc(N(Cc2ccccc2)CC(COCC(C)C)N2CCCC2)cc1 (stereo not shown) [Compound 3]	4.70 ± 0.38	4.00 ± 0.24	more marked cardiac tropism	4.87 ± 0.40				20	> 45	most valuable anti-anginal activity	196	-24	-63	30		4.5		
CC(C)COCC(CN(Cc1ccccc1)c1cccc(Cl)c1)N1CCCC1 (stereo not shown) [Compound 5, 2-(N-pyrrolidino)-3-isobutoxy-N-(3-chloro)-phenyl-N-benzyl-propylamine]	4.83 ± 0.27	4.71 ± 0.20						15	> 45	most valuable anti-anginal activity	98	-20	-45	15	Inactive			
CC(C)COCC(CN(Cc1ccccc1)c1cccc(C(F)(F)F)c1)N1CCCC1 (stereo not shown) [Compound 6]	5.19 ± 0.37	3.73 ± 0.50				predominantly vascular tropism		1	> 45		20	-32	-64	> 45				3.41
